As usually defined, the kinact is the maximal first-order rate at which the target is inactivated. Broadly, the Ki is the equilibrium dissociation constant of an inhibitor or competing ligand from its target. Usually Km stands for the substrate concentration at which the rate is half of its maximum.

Results on two molecules are retold here after ChEMBL document CHEMBL1128653, “Synthesis of 4-fluoroadenosine as an inhibitor of S-adenosyl-L-homocysteine hydrolase” (Bioorg Med Chem Lett, 1995).

The target of data set [1] is T1, Adenosylhomocysteinase (Rattus norvegicus) (UniProt P10760).
T1 sequence (whole entry): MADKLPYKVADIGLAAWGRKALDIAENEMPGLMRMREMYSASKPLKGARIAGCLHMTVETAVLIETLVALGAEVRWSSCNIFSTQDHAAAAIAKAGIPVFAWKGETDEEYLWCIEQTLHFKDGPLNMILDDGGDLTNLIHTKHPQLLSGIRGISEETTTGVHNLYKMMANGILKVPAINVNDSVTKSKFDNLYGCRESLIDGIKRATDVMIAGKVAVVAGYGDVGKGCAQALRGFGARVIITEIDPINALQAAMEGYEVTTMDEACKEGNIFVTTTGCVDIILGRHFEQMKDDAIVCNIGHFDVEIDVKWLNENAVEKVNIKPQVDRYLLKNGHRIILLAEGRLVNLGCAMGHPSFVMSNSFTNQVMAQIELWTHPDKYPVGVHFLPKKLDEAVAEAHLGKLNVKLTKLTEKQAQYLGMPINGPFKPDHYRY
The data set can be described thus: Inhibitory activity against rat liver S-adenosyl-L-homocysteine hydrolase.

Another data set deals with T2, Adenosylhomocysteinase (Rattus norvegicus, UniProt P10760).
T2 sequence (P10760 whole entry): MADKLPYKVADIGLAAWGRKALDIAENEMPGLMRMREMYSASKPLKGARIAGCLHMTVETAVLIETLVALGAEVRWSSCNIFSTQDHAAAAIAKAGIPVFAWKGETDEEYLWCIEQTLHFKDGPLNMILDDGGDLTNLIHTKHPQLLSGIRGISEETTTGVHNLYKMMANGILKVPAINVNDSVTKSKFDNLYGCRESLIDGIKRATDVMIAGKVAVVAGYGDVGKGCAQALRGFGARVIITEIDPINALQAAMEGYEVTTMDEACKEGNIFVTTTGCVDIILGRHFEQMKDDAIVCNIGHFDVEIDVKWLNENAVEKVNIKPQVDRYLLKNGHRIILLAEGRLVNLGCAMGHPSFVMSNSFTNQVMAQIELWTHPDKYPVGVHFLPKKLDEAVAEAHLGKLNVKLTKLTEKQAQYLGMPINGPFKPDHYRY
The data set can be described thus: Inhibitory constant against rat liver S-adenosyl-L-homocysteine hydrolase.

Substrate in data set [2]: Nc1ncnc2c1ncn2C1O[C@](F)(CO)[C@@H](O)[C@H]1O
The data set can be described thus: Michaelis constant towards rat liver S-adenosyl-L-homocysteine hydrolase was calculated.

As for `Nc1ncnc2c1ncn2C1O[C@](F)(CO)[C@@H](O)[C@H]1O` (stereo partly drawn), in data set [1], the kinact is 0.24 min⁻¹. This molecule also yielded an inhibition constant Ki at Adenosylhomocysteinase of 166 µM.

B1: Adenosylhomocysteinase (Rattus norvegicus), P10760 (protein)
chain: MADKLPYKVADIGLAAWGRKALDIAENEMPGLMRMREMYSASKPLKGARIAGCLHMTVETAVLIETLVALGAEVRWSSCNIFSTQDHAAAAIAKAGIPVFAWKGETDEEYLWCIEQTLHFKDGPLNMILDDGGDLTNLIHTKHPQLLSGIRGISEETTTGVHNLYKMMANGILKVPAINVNDSVTKSKFDNLYGCRESLIDGIKRATDVMIAGKVAVVAGYGDVGKGCAQALRGFGARVIITEIDPINALQAAMEGYEVTTMDEACKEGNIFVTTTGCVDIILGRHFEQMKDDAIVCNIGHFDVEIDVKWLNENAVEKVNIKPQVDRYLLKNGHRIILLAEGRLVNLGCAMGHPSFVMSNSFTNQVMAQIELWTHPDKYPVGVHFLPKKLDEAVAEAHLGKLNVKLTKLTEKQAQYLGMPINGPFKPDHYRY
As to B1, in data set [2], the Km is 1 µM.
